This note sets out measurements from patent publication US9173891B2, “Treatment of ovarian cancer using an anticancer agent conjugated to an angiopep-2 analog” (Angiochem, Inc., priority 2009, dated 2015).

Test [1] concerns metastatic ovarian cancer. Nature of the test: Prior standard chemotherapy of the ovarian cancer patient before the ANG1005 trial. The class given is in vivo, human. As to conditions: prior therapy 2007-2008. As to the method: The patient was originally diagnosed in November 2006 with ovarian cancer. […] From February 2008 to March 2008, the patient received a combination of Gemzar® (gemcitabine) and […]® (topotecan). The patient was again given a combination of Taxotere® (docetaxel) and carboplatin from March 2008 until July 2008. In November 2008, the patient was administered Doxil® (doxorubicin).

Another test deals with T1, LRP receptor (Rattus norvegicus, UniProt G3V928).
T1 construct: from tissue; host or cells: brain of male Sprague Dawley rats (in situ perfusion)
Put plainly: In situ rat brain perfusion, uptake inhibition by LRP ligands or Angiopep peptides. As to conditions: for brain uptake of an Angiopep conjugate: FIG. 6B. The class given is in vivo. An excerpt:
The methods of the invention may be especially useful in treating cancers having cells that express low density lipoprotein-related protein (LRP) receptor. The LRP receptor is expressed on the surface of cells, and is capable of binding to various substrates including aprotinin, β-amyloid, tissue plasminogen activator (tPA), melano-transferrin, and receptor associated peptide (RAP). The peptides described herein were designed based on the consensus kunitz-domain sequences that act as LRP receptor ligands (see, e.g., PCT Publication No. WO 2004/060403). Uptake of the conjugates including Angiopep-1 or Angiopep-2 is inhibited by LRP ligands, thus indicating involvement of LRP in this process. […] Angiopep-2 (10 or 100 μM) is similarly able to reduce uptake of the conjugates into cells (FIGS. 6A and 6B).
The results described in FIGS. 4A and 4B were obtained using an in situ rat brain perfusion. Male Sprague Dawley rats were anesthetized with […] i.p., of sodium pentobarbital (Nembutal, Abbott Laboratories, North Chicago, Ill., USA). The neck region was shaved and the common carotid artery was exposed. The external carotid artery was ligated, but the pterygopalatine artery was not occluded. A PE-60 catheter filled with heparinized 0.9% saline (100 IU/mL) was inserted into the common carotid artery upon ligation. A heating pad linked to YSI feedback controller device (Yellow Springs Instruments, Yellow Springs, Ohio, USA) was used to maintain the rat body temperature at 37° C. The PE-60 catheter was attached to a glass syringe filled with the tracer; with or without inhibitors, in a bicarbonate-buffered physiological saline (Smith Q R., Pharm Biotechnol 8:285-307, 1996) mounted on a Harvard infusion pump (Harvard Biosciences, South Natick, Mass., USA) maintained at 37° C. Dual-labeled experiments were performed for studying the brain uptake. [^14C]Sucrose was used as a vascular volume marker. Perfusion was started upon severing the heart to stop blood flow to the brain. […] The samples were weighed and counted using the gamma counter (Cobra 600) to determine the ^125I labeled drug. […]

T1 sequence (G3V928 20-4545): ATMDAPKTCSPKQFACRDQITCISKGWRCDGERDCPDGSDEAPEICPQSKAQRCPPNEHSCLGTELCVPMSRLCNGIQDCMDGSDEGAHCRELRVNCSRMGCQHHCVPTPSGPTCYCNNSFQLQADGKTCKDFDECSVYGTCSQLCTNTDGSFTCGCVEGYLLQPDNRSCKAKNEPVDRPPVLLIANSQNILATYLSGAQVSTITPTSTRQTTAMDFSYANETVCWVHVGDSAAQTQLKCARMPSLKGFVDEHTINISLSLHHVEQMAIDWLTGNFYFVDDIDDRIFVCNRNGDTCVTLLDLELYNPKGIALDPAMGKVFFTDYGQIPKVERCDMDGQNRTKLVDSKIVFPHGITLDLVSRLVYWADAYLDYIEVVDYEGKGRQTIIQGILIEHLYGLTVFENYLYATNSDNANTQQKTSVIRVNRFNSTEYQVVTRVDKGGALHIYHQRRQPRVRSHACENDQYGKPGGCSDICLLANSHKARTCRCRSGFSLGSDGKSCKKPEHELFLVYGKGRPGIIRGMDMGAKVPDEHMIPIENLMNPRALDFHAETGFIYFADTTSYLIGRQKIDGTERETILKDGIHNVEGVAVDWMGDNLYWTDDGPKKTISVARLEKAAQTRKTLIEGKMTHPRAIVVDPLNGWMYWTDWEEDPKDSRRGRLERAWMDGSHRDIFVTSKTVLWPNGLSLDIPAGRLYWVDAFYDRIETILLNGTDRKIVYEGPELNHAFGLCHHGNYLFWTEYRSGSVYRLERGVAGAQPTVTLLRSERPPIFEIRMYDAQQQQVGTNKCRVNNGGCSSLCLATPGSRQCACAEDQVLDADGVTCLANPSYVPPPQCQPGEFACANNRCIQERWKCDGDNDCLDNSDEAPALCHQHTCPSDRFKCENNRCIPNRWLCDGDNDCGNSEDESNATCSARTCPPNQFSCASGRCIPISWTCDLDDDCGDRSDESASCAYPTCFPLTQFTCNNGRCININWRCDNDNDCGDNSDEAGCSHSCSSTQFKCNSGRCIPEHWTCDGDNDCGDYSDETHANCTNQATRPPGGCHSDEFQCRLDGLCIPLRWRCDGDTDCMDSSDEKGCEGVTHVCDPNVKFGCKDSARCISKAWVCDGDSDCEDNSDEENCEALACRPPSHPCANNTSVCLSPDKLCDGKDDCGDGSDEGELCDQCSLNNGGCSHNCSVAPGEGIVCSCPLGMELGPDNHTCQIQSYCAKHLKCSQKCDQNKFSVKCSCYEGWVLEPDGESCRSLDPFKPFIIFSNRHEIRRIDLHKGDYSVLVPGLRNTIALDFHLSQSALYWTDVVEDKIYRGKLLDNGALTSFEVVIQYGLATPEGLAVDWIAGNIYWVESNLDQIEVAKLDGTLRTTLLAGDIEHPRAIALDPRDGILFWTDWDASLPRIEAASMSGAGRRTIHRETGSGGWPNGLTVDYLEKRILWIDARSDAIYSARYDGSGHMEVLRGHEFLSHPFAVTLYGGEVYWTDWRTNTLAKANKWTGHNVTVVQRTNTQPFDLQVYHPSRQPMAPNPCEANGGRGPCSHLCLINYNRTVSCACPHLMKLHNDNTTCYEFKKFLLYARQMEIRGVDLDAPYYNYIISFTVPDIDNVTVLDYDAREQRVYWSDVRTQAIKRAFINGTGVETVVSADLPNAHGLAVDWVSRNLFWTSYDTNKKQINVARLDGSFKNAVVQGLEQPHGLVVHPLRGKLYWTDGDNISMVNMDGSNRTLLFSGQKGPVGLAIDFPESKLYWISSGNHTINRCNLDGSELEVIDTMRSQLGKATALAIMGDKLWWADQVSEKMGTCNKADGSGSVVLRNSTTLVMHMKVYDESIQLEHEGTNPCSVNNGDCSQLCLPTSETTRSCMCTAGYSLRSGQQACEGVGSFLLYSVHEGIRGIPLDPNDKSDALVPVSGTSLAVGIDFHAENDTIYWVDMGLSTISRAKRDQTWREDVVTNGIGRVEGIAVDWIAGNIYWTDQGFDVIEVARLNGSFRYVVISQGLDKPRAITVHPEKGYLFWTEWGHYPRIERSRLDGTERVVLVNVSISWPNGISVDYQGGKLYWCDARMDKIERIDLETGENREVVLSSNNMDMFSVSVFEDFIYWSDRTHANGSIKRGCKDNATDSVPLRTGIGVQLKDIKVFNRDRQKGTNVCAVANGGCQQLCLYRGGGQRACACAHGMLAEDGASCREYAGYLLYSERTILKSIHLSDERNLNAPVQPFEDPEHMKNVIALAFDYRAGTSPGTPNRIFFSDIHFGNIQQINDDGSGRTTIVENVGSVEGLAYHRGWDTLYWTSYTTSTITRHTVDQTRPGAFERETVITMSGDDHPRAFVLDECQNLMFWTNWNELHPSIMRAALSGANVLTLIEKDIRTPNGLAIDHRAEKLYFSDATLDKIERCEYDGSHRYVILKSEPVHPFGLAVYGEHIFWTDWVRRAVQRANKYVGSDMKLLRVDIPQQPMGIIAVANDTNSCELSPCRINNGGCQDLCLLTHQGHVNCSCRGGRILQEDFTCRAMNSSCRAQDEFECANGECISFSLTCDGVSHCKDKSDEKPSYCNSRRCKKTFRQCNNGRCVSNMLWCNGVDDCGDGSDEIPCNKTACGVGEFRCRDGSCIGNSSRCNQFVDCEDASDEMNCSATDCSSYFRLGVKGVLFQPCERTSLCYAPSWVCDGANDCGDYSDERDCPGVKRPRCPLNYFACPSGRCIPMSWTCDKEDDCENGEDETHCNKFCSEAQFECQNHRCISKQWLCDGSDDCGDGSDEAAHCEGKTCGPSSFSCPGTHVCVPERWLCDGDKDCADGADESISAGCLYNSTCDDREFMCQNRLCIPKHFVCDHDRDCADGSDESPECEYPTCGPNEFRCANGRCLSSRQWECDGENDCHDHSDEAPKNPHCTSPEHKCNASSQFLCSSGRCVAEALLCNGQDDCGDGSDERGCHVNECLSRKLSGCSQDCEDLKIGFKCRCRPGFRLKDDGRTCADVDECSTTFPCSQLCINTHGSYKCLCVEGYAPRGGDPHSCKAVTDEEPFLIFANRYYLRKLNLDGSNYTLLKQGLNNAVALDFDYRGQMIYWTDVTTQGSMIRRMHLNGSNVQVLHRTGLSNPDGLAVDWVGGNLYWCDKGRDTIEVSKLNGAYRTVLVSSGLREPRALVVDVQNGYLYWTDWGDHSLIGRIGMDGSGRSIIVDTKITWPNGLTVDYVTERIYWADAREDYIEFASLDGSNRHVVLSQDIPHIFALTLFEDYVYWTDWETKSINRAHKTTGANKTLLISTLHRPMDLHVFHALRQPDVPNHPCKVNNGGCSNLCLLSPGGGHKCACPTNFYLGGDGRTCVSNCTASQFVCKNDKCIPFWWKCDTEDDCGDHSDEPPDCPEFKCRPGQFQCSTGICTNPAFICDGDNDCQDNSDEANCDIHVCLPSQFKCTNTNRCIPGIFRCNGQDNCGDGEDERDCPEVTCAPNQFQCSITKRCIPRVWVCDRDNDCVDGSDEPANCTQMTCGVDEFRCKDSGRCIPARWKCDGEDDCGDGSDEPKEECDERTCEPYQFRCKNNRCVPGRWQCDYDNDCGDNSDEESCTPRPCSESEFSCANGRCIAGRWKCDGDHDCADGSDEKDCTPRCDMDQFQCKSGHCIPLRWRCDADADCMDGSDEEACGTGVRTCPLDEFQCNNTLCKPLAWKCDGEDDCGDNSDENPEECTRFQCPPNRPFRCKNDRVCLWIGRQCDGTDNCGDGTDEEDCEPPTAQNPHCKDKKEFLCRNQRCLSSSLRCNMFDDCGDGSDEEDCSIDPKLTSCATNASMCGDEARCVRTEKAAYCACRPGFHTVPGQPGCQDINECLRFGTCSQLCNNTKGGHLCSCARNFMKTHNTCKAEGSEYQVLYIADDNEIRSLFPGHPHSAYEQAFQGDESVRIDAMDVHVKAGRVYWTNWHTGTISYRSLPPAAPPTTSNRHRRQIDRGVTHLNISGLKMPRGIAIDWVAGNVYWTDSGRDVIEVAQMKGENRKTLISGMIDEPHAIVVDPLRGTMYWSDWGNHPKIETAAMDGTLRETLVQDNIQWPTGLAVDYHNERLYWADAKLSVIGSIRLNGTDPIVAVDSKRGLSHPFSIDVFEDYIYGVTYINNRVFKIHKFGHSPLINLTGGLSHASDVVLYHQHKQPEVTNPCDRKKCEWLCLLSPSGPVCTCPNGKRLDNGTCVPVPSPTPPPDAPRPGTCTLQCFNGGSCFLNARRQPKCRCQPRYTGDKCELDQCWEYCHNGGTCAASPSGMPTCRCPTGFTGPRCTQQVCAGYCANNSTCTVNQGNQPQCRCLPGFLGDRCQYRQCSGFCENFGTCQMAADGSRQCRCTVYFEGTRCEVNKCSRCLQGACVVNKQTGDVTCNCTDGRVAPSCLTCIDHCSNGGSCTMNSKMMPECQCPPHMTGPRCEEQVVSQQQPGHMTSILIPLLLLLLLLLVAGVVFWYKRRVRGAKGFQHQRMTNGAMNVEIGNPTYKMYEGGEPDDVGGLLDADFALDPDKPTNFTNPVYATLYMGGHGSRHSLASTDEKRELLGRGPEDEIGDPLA

As to `CC[C@@]1(O)C(=O)OCc2c1cc1n(c2=O)Cc2cc3c(CN(C)C)c(O)ccc3nc2-1` [topotecan], the “course of patient's cancer after receiving the agent” value (shortened to “course of patient's cancer”) in test [1] was “continued to progress”.
For “RAP: LRP ligand, receptor associated protein (RAP)”, the “brain uptake of an Angiopep conjugate” value in the test with LRP receptor (RAP 200 nM co-perfused) was “reducing brain uptake”.
For `CC(=O)O[C@@]12CO[C@@H]1C[C@H](O)[C@@]1(C)C(=O)[C@H](O)C3=C(C)[C@@H](OC(=O)[C@H](O)[C@@H](NC(=O)OC(C)(C)C)c4ccccc4)C[C@@](O)([C@@H](OC(=O)c4ccccc4)[C@H]21)C3(C)C` [docetaxel], the “course of patient's cancer” value in test [1] is reported as “continued to progress”.
On to `Nc1ccn([C@@H]2O[C@H](CO)[C@@H](O)C2(F)F)c(=O)n1` [gemcitabine], for which the “course of patient's cancer” value in test [1] is reported as “continued to progress”.
As for `COc1cccc2c1C(=O)c1c(O)c3c(c(O)c1C2=O)C[C@@](O)(C(=O)CO)C[C@@H]3O[C@H]1C[C@H](N)[C@H](O)[C@H](C)O1` [doxorubicin], the “course of patient's cancer” value in test [1] is recorded as “continued to progress”.
For aprotinin, at LRP receptor (aprotinin 10 μM co-perfused), the “brain uptake of an Angiopep conjugate” value is listed as “reducing brain uptake”.
In the case of “Angiopep-2: peptide vector, sequence TFFYGGSRGKRNNFKTEEY”, the “uptake of the conjugates into cells” value in the test with LRP receptor (Angiopep-2 10 or 100 μM, FIG. 6A) is on record as “reduce uptake”.
Consider `N.N.O=C([O-])C1(C(=O)[O-])CCC1.[Pt+2]` [carboplatin], for which the “course of patient's cancer” value in test [1] was “continued to progress”.
